Like-named read-outs stand apart in the source and are kept apart here. Square brackets hold non-standard residues; d marks the D form. Peptide text beside a SMILES is read from it. * marks the point of attachment. Sta = CC(C)C[C@H](N)[C@@H](O)CC(=O)O; Isovaleryl = CC(C)CC(=O)*
Experiments:
[1] = system: DPP-like protease from F. hepatica E/S products; type: biochemical, Fasciola hepatica
Description: The assay mixture contained 200 μl of 20 μM substrate, 100 μl of enzyme solution and 900 μl of 50 mM Hepes, pH 6.8. The reaction was allowed to proceed at 37° C. and stopped by the addition of 200 μl of 1.7M acetic acid. The liberated AMC was measured in a fluorometer with excitation and emission wavelengths of 370 nm and 440 nm, respectively.
The effect of various metal ions on the hydrolytic activity of the enzyme was examined using both gly-pro-AMC and lys-ala-AMC as substrates in assays as described above.

Mammalian DPP2 = conditions: J. Biol. Chem. 263 (1988), 6613-6618; cited from earlier work
Mammalian DPP4 = conditions: J. Biol. Chem. 263 (1988), 6613-6618; cited from earlier work
[2] = gly-pro-AMC and lys-ala-AMC as substrates
[3] = substance 1 mM, substrate Gly-Pro-AMC
[4] = substance 5 mM, substrate Gly-Pro-AMC
[5] = substance 0.5 mM, substrate Gly-Pro-AMC
[6] = substance 0.5 mM, substrate Lys-Ala-AMC
[7] = substance 1 mM, substrate Lys-Ala-AMC
[8] = concentration of 5 mM, gly-pro-AMC and lys-ala-AMC as substrates
[9] = substance 5 mM, substrate Lys-Ala-AMC
[10] = substance 0.02 mM, substrate Gly-Pro-AMC
[11] = substance 0.02 mM, substrate Lys-Ala-AMC
[12] = substance 0.1 mM, substrate Gly-Pro-AMC
[13] = substance 0.1 mM, substrate Lys-Ala-AMC
[14] = substance 5 μg/ml, substrate Gly-Pro-AMC
[15] = substance 5 μg/ml, substrate Lys-Ala-AMC

Row | Compound | effect on enzyme activity (in words) [1, 2] | Activity remaining (%) Gly-Pro [1, 3] [%] | Activity remaining (%) Gly-Pro [1, 4] [%] | Activity remaining (%) Gly-Pro [1, 5] [%] | Activity remaining (%) Lys-Ala [1, 6] [%] | Activity remaining (%) Lys-Ala [1, 7] [%] | further results
1 | N=C(N)c1ccccc1 [Benzamidine] | inhibits the activity | 77 | 35 | – | – | – | Activity remaining (%) Gly-Pro ([1]; substance 10 mM, substrate Gly-Pro-AMC): 23%
2 | O=S(=O)(F)Cc1ccccc1 [PMSF, phenylmethyl sulfonyl fluoride] | inhibited | – | – | – | – | – | Activity remaining (%) Gly-Pro ([1]; substance 2 mM, substrate Gly-Pro-AMC): 2%; Activity remaining (%) Lys-Ala ([1]; substance 2 mM, substrate Lys-Ala-AMC): 3%
3 | [Mg+2] [Mg, magnesium] | little effect on enzyme activity | 78 | – | 116 | 105 | 76 | –
4 | [Zn] [Zn, zinc] | – | 3 | – | 80 | 37 | 14 | inhibition of enzyme activity ([1]; 1 mM concentration, gly-pro-AMC and lys-ala-AMC as substrates): > 85%
5 | OCCS [2-Mercaptoethanol] | – | 87 | – | – | – | 75 | activation of the enzyme by thiol activating agents [1]: no activation
6 | O[C@H](CS)[C@H](O)CS (racemic) [DTT, dithiothreitol] | – | 90 | – | 77 | 61 | 62 | activation of the enzyme by thiol activating agents [1]: no activation
7 | mercury [Hg] | – | 7 | 5 | – | – | 4 | inhibition of enzyme activity [1, 8]: > 90%; Activity remaining (%) Lys-Ala [1, 9]: 2%
8 | [Mn+2] [Mn, manganese] | little effect on enzyme activity | 66 | – | 102 | 104 | 66 | –
9 | [Pb] [Pb, lead] | – | 109 | 70 | – | – | 103 | Activity remaining (%) Lys-Ala [1, 9]: 82%
10 | [Cd] [Cd, cadmium] | – | 26 | 6 | – | – | 19 | inhibition of enzyme activity [1, 8]: > 90%; Activity remaining (%) Lys-Ala [1, 9]: 5%
11 | N[C@@H](CS)C(=O)O [Cysteine, cysteine] | – | 104 | – | 104 | 112 | 105 | activation of the enzyme by thiol activating agents [1]: no activation
12 | COc1ccc(C[C@H](N)C(=O)N[C@H]2[C@@H](O)[C@H](n3cnc4c(N(C)C)ncnc43)O[C@@H]2CO)cc1 [Puromycin, puromycin] | neither showed any inhibitory effect | – | – | – | – | – | Activity remaining (%) Gly-Pro [1, 10]: 100%; Activity remaining (%) Lys-Ala [1, 11]: 100%; Activity remaining (%) Gly-Pro [1, 12]: 100%; Activity remaining (%) Lys-Ala [1, 13]: 100%; inhibition of mammalian DPP2 (Mammalian DPP2): will inhibit DPP2 only
13 | bacitracin | neither showed any inhibitory effect | – | – | – | – | – | Activity remaining (%) Gly-Pro [1, 10]: 100%; Activity remaining (%) Lys-Ala [1, 11]: 100%; Activity remaining (%) Gly-Pro [1, 12]: 100%; Activity remaining (%) Lys-Ala [1, 13]: 100%; inhibition of mammalian DPP4 (Mammalian DPP4): inhibits DPP4 only
14 | [Ca+2] [Ca, calcium] | little effect on enzyme activity | 57 | – | 133 | 96 | 62 | –
15 | aprotinin | not inhibited | – | – | – | – | – | Activity remaining (%) Gly-Pro [1, 14]: 109%; Activity remaining (%) Lys-Ala [1, 15]: 116%
16 | O=C(O)CN(CCN(CC(=O)O)CC(=O)O)CC(=O)O [EDTA] | – | – | – | – | – | – | effect on enzyme activity (in words) [1]: not inhibited; Activity remaining (%) Gly-Pro ([1]; pH 6.8, 2000 µM): 108%; Activity remaining (%) Lys-Ala ([1]; pH 6.8, 2000 µM): 121%
17 | [Co] [Co, cobalt] | – | 20 | 4 | – | – | 28 | inhibition of enzyme activity [1, 8]: > 90%; Activity remaining (%) Lys-Ala [1, 9]: 6%
18 | [Fe] [Fe, iron] | – | 6 | 2 | – | – | 5 | inhibition of enzyme activity [1, 8]: > 90%; Activity remaining (%) Lys-Ala [1, 9]: 2%
19 | CC(C)CC(=O)N[C@H](C(=O)N[C@H](C(=O)N[C@@H](CC(C)C)[C@@H](O)CC(=O)N[C@@H](C)C(=O)N[C@@H](CC(C)C)[C@@H](O)CC(=O)O)C(C)C)C(C)C [Pepstatin] (Isovaleryl-VV[Sta]A[Sta]-OH) | not inhibited | – | – | – | – | – | Activity remaining (%) Gly-Pro [1, 14]: 108%; Activity remaining (%) Lys-Ala [1, 15]: 92%
